# Reference: ChEMBL document CHEMBL1201862, “PubChem BioAssay data set” (2004)
# Activity calls are given as the source filed them.
# Tests used:
# [1] = target: Potassium voltage-gated channel subfamily KQT member 2 (Rattus norvegicus, UniProt O88943, W236L); assay: KCNQ2 channel potentiators, dose response, mechanism study for KCNQ2 potentiator project, cell-based, automated electrophysiology (AID 2603); format: functional
# [2] = target: DNA dC->dU-editing enzyme APOBEC-3G (Homo sapiens, UniProt Q9HC16); format: functional;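 also: Dose-response counterscreen measuring inhibition of APOBEC3G DNA deaminase activity, run while confirming APOBEC3A inhibitors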
# [3] = target: DNA dC->dU-editing enzyme APOBEC-3A (Homo sapiens, UniProt P31941); assay: Dose Response confirmation of small molecule APOBEC3A DNA Deaminase Inhibitors via a fluorescence-based single-stranded DNA deaminase assay. [Related pubchem assays (depositor defined):AID493011, AID493024]; format: functional
# [4] = enhancers of respiration in Yfh1-depleted yeast, dose response, Friedreich's ataxia, plus single-dose screen (AID 1465); format: functional;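 also: yeast depleted of Yfh1p frataxin homolog grown on glycerol needing respiration; WST-1 tetrazolium dye reduction as measure of cellular dehydrogenase metabolic activity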
# Genome polyprotein = Genome polyprotein (dengue virus type 2, UniProt P29990); assay: Dengue-2 NS5 methyltransferase inhibitors, primary screen, biochemical, confirmation dose response (AID 588689); format: functional
# [5] = system: Streptococcus sp. 'group A'; assay: growth inhibition of control SK(-) GAS strain, dose response, counter-screen for streptokinase expression inhibitor project, luminescence, kanamycin, BacTiterGlo, confirmation (AID 1900); format: functional, organism-based
# [6] = NIH-3T3 fibroblast cytotoxicity, dose response, cytotoxicity control, cell-based, fluorescence, Alamar Blue, secondary assay (AID 2327); format: functional;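 also: NIH-3T3 mouse fibroblasts cultured with fluconazole at 8 µg/mL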
# Aminopeptidase N = target: T1, Aminopeptidase N (Plasmodium falciparum FcB1/Columbia, UniProt O96935); assay: P. falciparum M1AAP inhibitors, biochemical, fluorogenic H-Leu-NHMec substrate, 1536-well (AID 1445); parameters: species or system Plasmodium falciparum 3D7, 3D7
# T1 sequence (O96935 whole entry): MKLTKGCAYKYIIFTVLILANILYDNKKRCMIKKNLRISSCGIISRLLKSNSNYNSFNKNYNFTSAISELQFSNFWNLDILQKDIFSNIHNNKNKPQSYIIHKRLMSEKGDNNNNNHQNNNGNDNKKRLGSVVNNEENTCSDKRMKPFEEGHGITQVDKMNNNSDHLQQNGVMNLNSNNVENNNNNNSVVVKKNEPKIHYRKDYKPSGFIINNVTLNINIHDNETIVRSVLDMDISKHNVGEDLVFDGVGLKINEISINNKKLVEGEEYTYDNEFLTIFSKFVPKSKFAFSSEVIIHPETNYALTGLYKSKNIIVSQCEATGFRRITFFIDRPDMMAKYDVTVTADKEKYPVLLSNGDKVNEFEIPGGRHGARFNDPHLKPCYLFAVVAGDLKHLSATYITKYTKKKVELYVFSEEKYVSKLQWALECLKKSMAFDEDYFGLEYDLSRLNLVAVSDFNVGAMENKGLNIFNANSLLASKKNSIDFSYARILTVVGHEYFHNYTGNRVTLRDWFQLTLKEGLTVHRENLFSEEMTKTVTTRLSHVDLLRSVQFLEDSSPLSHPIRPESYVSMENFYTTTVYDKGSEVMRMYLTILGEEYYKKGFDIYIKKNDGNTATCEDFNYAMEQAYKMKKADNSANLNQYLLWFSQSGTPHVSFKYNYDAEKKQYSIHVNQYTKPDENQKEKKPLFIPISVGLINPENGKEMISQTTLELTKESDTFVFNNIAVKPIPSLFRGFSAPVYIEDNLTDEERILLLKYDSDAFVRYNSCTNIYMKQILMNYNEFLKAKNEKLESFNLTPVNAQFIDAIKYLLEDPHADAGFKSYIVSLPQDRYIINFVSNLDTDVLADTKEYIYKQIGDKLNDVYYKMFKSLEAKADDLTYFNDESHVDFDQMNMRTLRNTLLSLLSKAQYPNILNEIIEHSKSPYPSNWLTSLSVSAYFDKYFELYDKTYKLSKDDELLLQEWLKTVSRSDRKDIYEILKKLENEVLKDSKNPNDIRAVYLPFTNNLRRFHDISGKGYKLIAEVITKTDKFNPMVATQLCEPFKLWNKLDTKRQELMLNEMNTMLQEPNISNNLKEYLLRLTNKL
# [7] = C. albicans growth with fluconazole, confirmation, fluorescence, retest (AID 2467); format: functional, cell-based
# [8] = HIV-1 Env-mediated cell fusion inhibitors, dose response, CCR5-tropic Env (AID 2279); format: functional
# Streptokinase A = target: T2, Streptokinase A (Streptococcus pyogenes serotype M1, UniProt P10520); assay: S. pyogenes streptokinase expression inhibitors, potency, dose response, plasminogen activation absorbance, OD405 (AID 1914); format: functional, Streptococcus pyogenes M1 GAS;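 also: secreted streptokinase activity via plasminogen activation per viability signal from cell pellet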
# T2 sequence (P10520 whole entry): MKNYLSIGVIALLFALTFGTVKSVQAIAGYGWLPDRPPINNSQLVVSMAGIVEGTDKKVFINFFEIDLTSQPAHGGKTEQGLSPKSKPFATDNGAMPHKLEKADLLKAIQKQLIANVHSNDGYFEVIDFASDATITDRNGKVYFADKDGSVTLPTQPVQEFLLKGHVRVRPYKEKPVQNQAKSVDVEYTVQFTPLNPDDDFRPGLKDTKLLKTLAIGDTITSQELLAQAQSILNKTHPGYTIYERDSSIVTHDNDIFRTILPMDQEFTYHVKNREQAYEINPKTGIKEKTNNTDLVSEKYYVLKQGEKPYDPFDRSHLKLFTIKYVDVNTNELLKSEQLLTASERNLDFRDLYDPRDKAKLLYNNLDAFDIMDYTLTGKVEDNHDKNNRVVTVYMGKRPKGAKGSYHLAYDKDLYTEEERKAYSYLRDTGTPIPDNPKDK
# Streptococcus = assay: Group A Streptococcus viability loss, dose response, counter-screen for streptokinase expression inhibitor project, luminescence, BacTiterGlo (AID 1915); format: functional, organism-based;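 also: potency for reduction of bacterial viability or growth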
# [9] = target: T3, Neuropeptide Y receptor type 2 (Homo sapiens, UniProt P49146); format: functional, cell-based;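 also: HEK293 cells expressing the receptor and a CNG channel; stimulus was NPY near EC95 followed by isoproterenol to raise cAMP; antagonist potency measured as restoring cAMP signal that NPY suppresses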
# T3 sequence (P49146 whole entry): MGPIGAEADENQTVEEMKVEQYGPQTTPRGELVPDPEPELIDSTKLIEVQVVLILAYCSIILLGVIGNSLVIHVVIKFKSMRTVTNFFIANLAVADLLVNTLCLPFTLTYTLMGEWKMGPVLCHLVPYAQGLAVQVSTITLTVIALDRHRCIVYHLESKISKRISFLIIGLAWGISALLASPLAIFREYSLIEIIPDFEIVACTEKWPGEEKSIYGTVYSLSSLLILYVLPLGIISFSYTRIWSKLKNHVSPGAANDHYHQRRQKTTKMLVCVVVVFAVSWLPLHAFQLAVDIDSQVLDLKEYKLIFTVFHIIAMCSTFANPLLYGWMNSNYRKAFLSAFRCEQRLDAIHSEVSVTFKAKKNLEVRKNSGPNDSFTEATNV
# [10] = target: T4, Neuropeptide Y receptor type 1 (Homo sapiens, UniProt P25929); format: functional;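 also: HEK293 cells with a CNG channel challenged with NPY then isoproterenol; potency as antagonist that reverses NPY suppression of cAMP signal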
# T4 sequence (P25929 whole entry): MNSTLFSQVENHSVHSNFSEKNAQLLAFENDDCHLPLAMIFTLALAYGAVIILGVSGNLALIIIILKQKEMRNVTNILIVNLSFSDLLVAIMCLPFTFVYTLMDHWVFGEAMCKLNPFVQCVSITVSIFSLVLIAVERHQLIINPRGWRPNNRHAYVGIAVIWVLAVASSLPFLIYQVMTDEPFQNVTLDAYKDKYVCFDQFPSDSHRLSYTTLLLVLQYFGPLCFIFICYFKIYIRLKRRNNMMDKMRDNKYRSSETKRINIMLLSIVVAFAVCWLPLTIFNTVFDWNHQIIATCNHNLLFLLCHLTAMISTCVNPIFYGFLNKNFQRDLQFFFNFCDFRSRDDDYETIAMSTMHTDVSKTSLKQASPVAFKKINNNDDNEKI
# [11] = target: Sphingosine 1-phosphate receptor 2 (Homo sapiens, UniProt O95136); assay: Dose Response Cell Based Assay for Agonists of the S1P2 Receptor of Purchased Analogues. [Related pubchem assays: 729, 843, 854, 736 ]; format: functional
# Bcl-2-like protein 10 = target: T5, Bcl-2-like protein 10 (Homo sapiens, UniProt Q9HD36); assay: Biochemical TR3 FP assay of Bcl-B inhibitor potency, EC50 (AID 1243); format: functional
# T5 sequence (Q9HD36 whole entry): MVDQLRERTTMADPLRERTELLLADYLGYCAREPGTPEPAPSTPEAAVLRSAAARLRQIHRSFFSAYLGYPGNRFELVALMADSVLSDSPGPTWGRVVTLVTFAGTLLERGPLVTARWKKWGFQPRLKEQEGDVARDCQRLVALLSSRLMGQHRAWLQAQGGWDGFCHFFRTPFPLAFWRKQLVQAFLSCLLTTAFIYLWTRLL
# [12] = Luminescence Cell-Based Dose Response to Identify Activators of Luciferase Translation or Activity in H4-C Neuroglioblastoma Cells. [Related pubchem assays: 1829 (Project Summary), 1814 (Primary HTS)]; format: functional
# [13] = Luminescence Cell-Based Dose Confirmation HTS to Identify Activators of 5'UTR Stem-Loop Driven Alpha-Synuclein mRNA Translation in H4 Neuroglioblastoma Cells. [Related pubchem assays: 1829 (Project Summary), 1814 (Primary HTS)]; format: functional
# [14] = Luminescence Cell-Based Dose Response to Identify Activators of 5'UTR Stem-Loop Driven Prion Protein mRNA Translation in H4-C Neuroglioblastoma Cells. [Related pubchem assays: 1829 (Project Summary), 1814 (Primary HTS)]; format: functional
# [15] = Luminescence Cell-Based Dose Confirmation to Identify Activators of 5'UTR Stem-Loop Driven Alpha-Synuclein mRNA Translation in H4 Neuroglioblastoma Cells. [Related pubchem assays: 1829 (Project Summary), 1814 (Primary HTS)]; format: functional
# H4 = assay: Luminescence Cell-Based Dose Response HTS to Identify Activators of 5'UTR Stem-Loop Driven Prion Protein mRNA Translation in H4 Neuroglioblastoma Cells. [Related pubchem assays: 1829 (Project Summary), 1814 (Primary HTS)]; format: functional; settings: Homo sapiens
# [16] = Luminescence Cell-Based Dose Confirmation HTS to Identify Inhibitors of Polyadenylation.; format: functional
# Sequence of Sphingosine 1-phosphate receptor 2 (O95136 whole entry): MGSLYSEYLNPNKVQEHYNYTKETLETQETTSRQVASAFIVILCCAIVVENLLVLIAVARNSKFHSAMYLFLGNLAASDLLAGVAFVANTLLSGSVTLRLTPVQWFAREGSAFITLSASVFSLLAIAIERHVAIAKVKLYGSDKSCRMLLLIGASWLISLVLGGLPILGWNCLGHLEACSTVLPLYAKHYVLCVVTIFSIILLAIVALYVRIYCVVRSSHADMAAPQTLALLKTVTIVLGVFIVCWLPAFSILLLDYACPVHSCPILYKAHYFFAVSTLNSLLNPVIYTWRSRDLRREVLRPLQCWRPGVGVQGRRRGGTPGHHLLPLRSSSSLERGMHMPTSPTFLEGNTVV
# Sequence of Potassium voltage-gated channel subfamily KQT member 2 (O88943 whole entry W236L): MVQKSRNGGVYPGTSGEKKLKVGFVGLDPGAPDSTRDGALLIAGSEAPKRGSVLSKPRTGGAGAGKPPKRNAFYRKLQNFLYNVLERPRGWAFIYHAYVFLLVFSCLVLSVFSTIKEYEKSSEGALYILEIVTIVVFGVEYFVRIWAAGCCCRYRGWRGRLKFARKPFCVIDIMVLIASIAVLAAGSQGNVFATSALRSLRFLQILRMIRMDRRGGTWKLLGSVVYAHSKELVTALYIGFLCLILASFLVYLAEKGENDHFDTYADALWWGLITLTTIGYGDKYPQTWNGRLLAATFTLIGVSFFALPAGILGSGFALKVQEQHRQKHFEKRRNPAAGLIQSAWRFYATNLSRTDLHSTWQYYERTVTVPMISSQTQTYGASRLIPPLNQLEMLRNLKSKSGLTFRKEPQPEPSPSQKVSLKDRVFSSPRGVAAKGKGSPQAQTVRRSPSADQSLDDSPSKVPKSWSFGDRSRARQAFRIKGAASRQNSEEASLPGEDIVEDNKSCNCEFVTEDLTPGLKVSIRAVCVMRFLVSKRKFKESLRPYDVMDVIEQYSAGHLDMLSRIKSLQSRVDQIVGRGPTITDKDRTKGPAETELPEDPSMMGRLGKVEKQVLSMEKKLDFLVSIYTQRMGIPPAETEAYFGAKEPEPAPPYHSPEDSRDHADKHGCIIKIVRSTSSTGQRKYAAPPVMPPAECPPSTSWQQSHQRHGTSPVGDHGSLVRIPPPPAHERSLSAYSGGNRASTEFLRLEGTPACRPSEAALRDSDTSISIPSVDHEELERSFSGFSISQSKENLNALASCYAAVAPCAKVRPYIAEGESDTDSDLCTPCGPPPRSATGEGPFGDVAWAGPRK
# Sequence of DNA dC->dU-editing enzyme APOBEC-3G (Q9HC16 whole entry): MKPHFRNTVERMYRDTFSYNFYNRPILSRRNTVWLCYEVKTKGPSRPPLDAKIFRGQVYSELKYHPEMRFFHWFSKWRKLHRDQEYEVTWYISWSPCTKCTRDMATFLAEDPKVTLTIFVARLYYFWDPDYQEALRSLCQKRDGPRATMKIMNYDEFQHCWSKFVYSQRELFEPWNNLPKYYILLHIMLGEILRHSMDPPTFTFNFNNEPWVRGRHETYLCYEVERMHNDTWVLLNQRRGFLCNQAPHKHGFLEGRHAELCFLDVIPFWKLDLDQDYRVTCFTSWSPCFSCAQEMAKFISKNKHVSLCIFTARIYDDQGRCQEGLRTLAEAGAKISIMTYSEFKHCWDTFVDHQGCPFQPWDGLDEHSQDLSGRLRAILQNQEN
# Sequence of DNA dC->dU-editing enzyme APOBEC-3A (P31941 whole entry): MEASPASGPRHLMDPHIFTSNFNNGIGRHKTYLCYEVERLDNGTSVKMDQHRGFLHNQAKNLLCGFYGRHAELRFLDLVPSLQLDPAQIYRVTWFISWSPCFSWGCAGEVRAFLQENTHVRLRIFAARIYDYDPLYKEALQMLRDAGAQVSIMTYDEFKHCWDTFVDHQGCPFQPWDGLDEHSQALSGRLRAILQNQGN
# Sequence of Genome polyprotein (P29990 2492-3391 limits assumed): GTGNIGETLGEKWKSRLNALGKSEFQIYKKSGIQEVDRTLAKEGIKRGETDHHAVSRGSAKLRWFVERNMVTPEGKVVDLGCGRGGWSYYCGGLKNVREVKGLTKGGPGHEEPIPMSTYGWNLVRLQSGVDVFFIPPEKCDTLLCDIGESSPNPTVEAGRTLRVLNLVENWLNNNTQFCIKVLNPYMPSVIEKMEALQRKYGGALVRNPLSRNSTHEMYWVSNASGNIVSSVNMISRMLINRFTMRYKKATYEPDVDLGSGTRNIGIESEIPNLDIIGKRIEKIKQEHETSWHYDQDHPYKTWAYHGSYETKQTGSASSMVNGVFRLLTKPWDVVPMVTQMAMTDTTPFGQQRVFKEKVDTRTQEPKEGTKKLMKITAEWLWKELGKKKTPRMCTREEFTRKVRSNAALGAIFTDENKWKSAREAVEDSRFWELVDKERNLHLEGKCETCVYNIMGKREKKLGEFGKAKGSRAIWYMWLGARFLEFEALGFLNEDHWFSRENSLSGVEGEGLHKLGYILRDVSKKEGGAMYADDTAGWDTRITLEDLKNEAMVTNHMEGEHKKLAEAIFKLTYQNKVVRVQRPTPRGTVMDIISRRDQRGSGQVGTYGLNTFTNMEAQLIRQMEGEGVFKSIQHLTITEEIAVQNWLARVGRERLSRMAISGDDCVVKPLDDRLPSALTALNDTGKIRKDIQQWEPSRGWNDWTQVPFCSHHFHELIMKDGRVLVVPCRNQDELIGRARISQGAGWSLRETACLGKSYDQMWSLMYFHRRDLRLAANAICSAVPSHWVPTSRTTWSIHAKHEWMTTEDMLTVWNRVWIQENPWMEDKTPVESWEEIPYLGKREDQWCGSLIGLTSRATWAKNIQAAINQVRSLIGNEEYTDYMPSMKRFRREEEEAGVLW
compound,measurement,setting,value
O=C(Nc1ccc(Oc2ccc3ccccc3c2)cc1)c1ccco1,EC50,[1],12 µM (active)
C[n+]1cc(C(=O)N2CCCCC2)ccc1/C=C/c1c[nH]c2ccccc12,IC50,[2],2.7 µM (active)
same,IC50,[3],2.44 µM (active)
same,EC50,[4],> 100 µM (active)
CC1(C)CC(=O)C2=C(C1)c1c(ccc3ccccc13)NC2c1cc([N+](=O)[O-])cc([N+](=O)[O-])c1O (stereo not given),IC50,Genome polyprotein,25.3 µM (active)
same,EC50,[5],4.43 µM (active)
same,EC50,[6],106 µM (active)
same,IC50,Aminopeptidase N,29.4 µM (active)
same,EC50,[7],0.622 µM (active)
same,IC50,[8],29.9 µM (active)
same,EC50,Streptokinase A,> 150 µM (not active)
same,EC50,Streptococcus,> 150 µM (not active)
Cc1ccc(N=C(S)N=C(N)Nc2nc(C)c3cc(C)ccc3n2)c(C)c1,IC50,[9],22.9 µM (not active)
same,IC50,[10],> 35 µM (not active)
Cc1cc(C(=O)CN(C)CC(=O)N2CCOCC2)c(C)n1Cc1ccccc1,EC50,[11],> 30 µM (not active)
CC(=O)c1cc(C#N)c(SCC(=O)c2ccc(O)c(O)c2)nc1C,EC50,Bcl-2-like protein 10,11 µM (active)
Cc1ccc(Nc2nc3ccccc3[nH]2)nc1,EC50,[12],0.368 µM (active)
same,EC50,[13],< 0.1 µM (active)
same,EC50,[14],0.279 µM (active)
same,EC50,[15],0.601 µM (active)
same,EC50,[5],5.49 µM (active)
same,EC50,H4,43.1 µM (active)
same,EC50,Streptokinase A,> 150 µM (not active)
same,EC50,Streptococcus,> 150 µM (not active)
CC(C)CC1Nc2ncnc(N3CCN(c4ccccc4)CC3)c2N(Cc2ccccc2)C1=O (stereo not given),EC50,[16],> 120 µM (not active)
